In publication PMC3755734 (Angewandte Chemie (International ed. in English), 2011):

Legend:
Type in all cases: biochemical
[1] = target: T1, CKIα (Homo sapiens, UniProt P48729); assay: in vitro kinase assay
T1 sequence (P48729 2-337): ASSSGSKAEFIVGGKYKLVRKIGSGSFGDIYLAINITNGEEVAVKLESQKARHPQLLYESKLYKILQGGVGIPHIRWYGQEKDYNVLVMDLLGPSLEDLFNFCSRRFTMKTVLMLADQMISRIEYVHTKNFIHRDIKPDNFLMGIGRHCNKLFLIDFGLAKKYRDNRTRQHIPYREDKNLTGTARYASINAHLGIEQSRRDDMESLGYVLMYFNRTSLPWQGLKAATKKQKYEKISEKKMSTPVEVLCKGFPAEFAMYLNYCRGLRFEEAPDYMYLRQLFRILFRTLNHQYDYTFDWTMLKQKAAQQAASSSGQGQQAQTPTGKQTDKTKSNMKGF

[2] = target: casein kinase 1 delta (CKIδ) (Homo sapiens, UniProt P48730); assay: in vitro kinase assay IC50
casein kinase 1 delta (CKIδ), sequence (P48730 whole entry): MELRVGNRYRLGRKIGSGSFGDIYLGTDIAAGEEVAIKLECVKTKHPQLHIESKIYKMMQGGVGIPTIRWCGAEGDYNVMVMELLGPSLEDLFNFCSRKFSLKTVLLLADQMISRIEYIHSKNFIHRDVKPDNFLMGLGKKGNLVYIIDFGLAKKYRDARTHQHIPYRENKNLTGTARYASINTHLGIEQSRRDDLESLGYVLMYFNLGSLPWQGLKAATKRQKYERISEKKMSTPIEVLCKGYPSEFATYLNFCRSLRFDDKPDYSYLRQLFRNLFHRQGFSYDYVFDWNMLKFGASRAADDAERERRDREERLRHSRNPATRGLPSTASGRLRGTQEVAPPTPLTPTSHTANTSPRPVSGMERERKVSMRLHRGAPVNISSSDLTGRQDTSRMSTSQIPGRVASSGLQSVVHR

[3] = target: CKIε (Homo sapiens, UniProt P49674); assay: in vitro kinase assay
CKIε, sequence (P49674 whole entry): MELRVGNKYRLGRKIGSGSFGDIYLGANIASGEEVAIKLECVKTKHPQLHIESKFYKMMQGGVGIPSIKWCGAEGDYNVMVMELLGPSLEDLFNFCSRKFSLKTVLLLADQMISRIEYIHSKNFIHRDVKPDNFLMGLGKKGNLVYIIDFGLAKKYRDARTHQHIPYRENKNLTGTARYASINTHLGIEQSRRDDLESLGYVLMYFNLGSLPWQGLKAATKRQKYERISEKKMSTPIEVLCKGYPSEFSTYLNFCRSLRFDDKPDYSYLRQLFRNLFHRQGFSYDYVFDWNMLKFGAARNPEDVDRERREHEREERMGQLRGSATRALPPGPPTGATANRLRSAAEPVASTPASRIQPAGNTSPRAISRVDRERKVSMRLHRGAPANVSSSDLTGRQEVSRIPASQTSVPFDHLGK

`Cc1cc2sc(NC(=O)Cc3ccccc3)nc2cc1Cl` [LH846] gave an IC50 [1] of 2500 nM, an IC50 [2] of 290 nM and an IC50 [3] of 1300 nM.
